Measured values reported in patent US20190275012A9, “SUBSTITUTED THIAZOLO-PYRIDINE COMPOUNDS AS MALT1 INHIBITORS” (Lupin Limited, priority 2016, published 2019).

Experiments:
[1] = tested on: NF-kB transcriptional activity in HEK-293-NF-kB-Luc cell line overexpressing MALT1; assay: NF-kB reporter assay (luciferase, MALT1 stably overexpressed); type: cell-based; settings: Homo sapiens, 24 h, HEK-293-NF-kB-Luc cells stably overexpressing MALT1, 24 h treatment, Bright Glo luminescence; read-out: NF-kB inhibition IC50
How it was run: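 HEK-293-NF-κB-Luc cells stably overexpressing MALT1 were seeded overnight, then exposed to test compounds for 24 h. Bright Glo added 10 min at ambient temperature and luminescence read; % inhibition calculated against 0.1% DMSO controls.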

full length MALT1 enzyme = molecular target: T1, full length MALT1 enzyme (Homo sapiens, UniProt Q9UDY8); assay: MALT1 biochemical assay (fluorescence based, Ac-Leu-Arg-Ser-Arg-AMC cleavage); settings: full length MALT1 protein, 2 h pre-incubation at RT, tetrapeptide substrate Ac-Leu-Arg-Ser-Arg-AMC, read-out: Malt 1 inhibition IC50
T1 construct: a fluorescence based assay with full length MALT1 enzyme
T1 sequence (Q9UDY8 1-824): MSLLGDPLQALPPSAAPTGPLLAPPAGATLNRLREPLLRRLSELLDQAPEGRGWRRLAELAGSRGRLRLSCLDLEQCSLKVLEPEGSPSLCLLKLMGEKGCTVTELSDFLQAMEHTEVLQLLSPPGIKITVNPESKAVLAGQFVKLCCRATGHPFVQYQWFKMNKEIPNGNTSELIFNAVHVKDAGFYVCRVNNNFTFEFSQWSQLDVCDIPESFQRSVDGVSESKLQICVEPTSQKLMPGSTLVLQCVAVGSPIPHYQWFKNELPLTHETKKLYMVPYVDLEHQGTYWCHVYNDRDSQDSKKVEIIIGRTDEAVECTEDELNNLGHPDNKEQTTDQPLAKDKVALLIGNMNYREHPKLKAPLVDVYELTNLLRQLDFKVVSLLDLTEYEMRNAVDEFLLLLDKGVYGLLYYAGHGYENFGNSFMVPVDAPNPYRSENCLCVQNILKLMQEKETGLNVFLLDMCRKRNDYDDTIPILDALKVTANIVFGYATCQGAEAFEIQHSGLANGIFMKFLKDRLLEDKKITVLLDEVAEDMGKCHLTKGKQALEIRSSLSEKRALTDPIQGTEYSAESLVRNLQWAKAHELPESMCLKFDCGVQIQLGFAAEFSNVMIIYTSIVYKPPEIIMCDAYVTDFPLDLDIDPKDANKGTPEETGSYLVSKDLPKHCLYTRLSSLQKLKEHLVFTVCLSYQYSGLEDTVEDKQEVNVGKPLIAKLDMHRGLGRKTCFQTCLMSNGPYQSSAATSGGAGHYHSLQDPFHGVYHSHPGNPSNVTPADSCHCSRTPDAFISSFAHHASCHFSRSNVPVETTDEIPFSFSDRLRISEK
Method: The biochemical potency of the MALT1 inhibitors was tested by using a fluorescence based assay with full length MALT1 enzyme. The assay principle makes use of the preferential cleavage by MALT1 after the Arginine residue. Thus, the substrate used is a tetrapeptide (Ac-Leu-Arg-Ser-Arg-AMC; Catalogue # SMAMC013, SM Biochemicals) which is cleaved by active MALT1 releasing the AMC which is fluorescent. Upon addition of the MALT1 protease inhibitors, the proteolytic activity (and accordingly AMC fluorescence) is reduced in a dose dependent manner. The kinetic characterization of the enzymatic reaction was measured by determining the Michaelis constant, Km, of the reaction (approximately 130=A/I). The assay buffer consisted of 50 mM MES, 150 mM NaCl, 0.1% w/v CHAPS, 1 M Ammonium citrate and 10 mM DTT (pH=7). The assay was established for the 384-well plate format using black microtiter square well plates (Optiplate 384-F, Perkin Elmer). The test compounds were dissolved in 100% DMSO at a stock concentration of 10 mM. Serial dilutions were made first in 100% DMSO. The final concentration of DMSO was 0.5% by wt.
For determining the extent of inhibition of MALT1 protease activity by MALT1 inhibitors, 10⇒| of the test compound solutions were pre-incubated with 10⇒| of MALT1 full length protein (100-300 ng protein/well) for 2 h at RT. This was followed by 10⇒| of substrate addition at a final concentration of 100⇒M for an additional 4-12 h. The increase in assay signal was linear over this period of time and proportional with increase in the enzyme content. The final concentrations of the test compounds typically ranged from 10000 nM to 0.03 nM in an alternate 3.16 and 3 serial dilutions. The positive control for the reaction contained enzyme and DMSO (without any test compound) and was considered to have 100% enzyme activity (0% inhibition) and the negative control containing only buffer and DMSO (without any enzyme) was considered to have no enzymatic activity (100% inhibition). The fluorescence was recorded in a Spectra Max plate reader, Molecular Devices, with a fluorescence excitation at 360 nm and emission recording at 460 nm. The fluorescence units were transformed to percentage inhibitions by using the positive and negative controls as references as per the following formula.
[formula] Positive control=Reaction containing enzyme+substrate+DMSO
Negative control=Reaction containing substrate+DMSO but no enzyme
The IC50 values of individual compounds were calculated with Non Linear Regression Analysis using Graph Pad Prism (Graph Pad software, Inc, USA).

Compound	IC50 [1]	IC50 (full length MALT1 enzyme)
COc1nc(-n2nccn2)c(C(F)(F)F)cc1NC(=O)Nc1cnc2sc(C)nc2c1C(C)OC (single isomer, unassigned) [Compound 88b, 1-(2-Methoxy-6-(2H-1,2,3-triazol-2-yl)-5-(trifluoromethyl)pyridin-3-yl)-3-(7-(1-methoxyethyl)-2-methylthiazolo[5,4-b]pyridin-6-yl)urea]	1 to 100 nM	1 to 50 nM
COCc1c(NC(=O)Nc2cnc(-n3nccn3)c(Cl)c2)cnc2sc(C)nc12 [Compound 176, 1-(5-Chloro-6-(2H-1,2,3-triazol-2-yl)pyridin-3-yl)-3-(7-(metdoxymethyl)-2-methylthiazolo[5,4-b]pyridin-6-yl)urea]	101 to 500 nM	1 to 50 nM
COC(c1c(NC(=O)Nc2cnc(-n3nccn3)c(C(F)(F)F)c2)cnc2sc(C)nc12)C(C)C (single isomer, unassigned) [Compound 78b, 1-(6-(2H-1,2,3-Triazol-2-yl)-5-(trifluoromethyl)pyridin-3-yl)-3-(7-(1-methexyl-methylpropyl)-2-methylthiazolo[5,4-b]pyridin-6-yl)urea]	1 to 100 nM	1 to 50 nM
Cc1nc2c(C(C)N(C)C)c(NC(=O)Nc3cnc(-n4nccn4)c(C(F)(F)F)c3)cnc2s1 (single isomer, unassigned) [Compound 74b, 1-(6-(2H-1,2,3-Triazol-2-yl)-5-(trifluoromethyl)pyridin-3-yl)-3-(7-(1-(dimethylsmino)ethyl)-2-methylthiazolo[5,4-b]pyridin-6-yl)urea]	1 to 100 nM	1 to 50 nM
COc1cc(F)ccc1-c1c(NC(=O)Nc2cnc(OC)c(Cl)c2)cnc2sc(C)nc12 [Compound 15, 1-(5-Chloro-6-methoxypyridin-3-yl)-3-(7-(4-fluoro-2-methoxyphenyl)-2-methylthiazolo[5,4-b]pyridin-6-yl)urea]	501 to 1500 nM	1 to 50 nM
COC(C)c1c(NC(=O)Nc2cnc(-n3nccn3)c(C(F)(F)F)c2)cnc2sc(C)nc12 (single isomer, unassigned) [Compound 142a, 1-(6-(2H-1,2,3-Triazol-2-yl)-5-(trifluoromethyl)pyridin-3-yl)-3-(7-(1-methoxyethyl)-2-methylthiazolo[5,4-b]pyridin-6-yl)urea]	1 to 100 nM	1 to 50 nM
CCC(OC)c1c(NC(=O)Nc2ccc(-n3nccn3)c(Cl)c2)cnc2sc(C)nc12 (single isomer, unassigned) [Compound 126b, 1-(3-Chloro-4-(2H-1,2,3-triazol-2-yl)phenyl)-3-(7-(1-methoxypropyl)-2-methylthiazolo[5,4-b]pyridin-6-yl)urea]	1 to 100 nM	1 to 50 nM
Cc1nc2c(C3CC3)c(NC(=O)Nc3cc(Cl)c(-n4ccnn4)c(Cl)c3)cnc2s1 [Compound 170, 1-(7-Cyclopropyl-2-methylthiazolo[5,4-b]pyridin-6-yl)-3-(3,5-dichloro-4-(1H-1,2,3-triazol-1-yl)phenyl)urea]	101 to 500 nM	1 to 50 nM
CCc1c(NC(=O)Nc2ccc(OC)c(Cl)c2)cnc2sc(C)nc12 [Compound 25, 1-(3-Chloro-4-methoxyphenyl)-3-(7-ethyl-2-methylthiazolo[5,4-b]pyridin-6-yl)urea]	501 to 1500 nM	1 to 50 nM
COC(C)c1c(NC(=O)Nc2cnc(-n3cccn3)c(C(F)(F)F)c2)cnc2sc(C)nc12 (single isomer, unassigned) [Compound 213b, (S) or (R)-1-(6-(1H-Pyrazol-1-yl)-5-(trifluoromethyl)pyridin-3-yl)-3-(7-(1-methoxyethyl)-2-methylthiazolo[5,4-b]pyridin-6-yl)urea]	1 to 100 nM	1 to 50 nM
COc1nc(-n2nccn2)c(C(F)(F)F)cc1NC(=O)Nc1cnc2sc(C)nc2c1C(OC)C1CC1 (single isomer, unassigned) [Compound 155a, 1-(7-(Cyclopropyl(methoxy)methyl)-2-methylthiazolo[5,4-b]pyridin-6-yl)-3-(2-methoxy-6-(2H-1,2,3-triazol-2-yl)-5-(trifluoromethyl)pyridin-3-yl)urea]	1 to 100 nM	1 to 50 nM
